Where two headings read alike, the source gives them in different places. Some results are limits rather than exact numbers.

The values below come from patent US10124004B2, “Pyrido[3,4-d]pyrimidine derivative and pharmaceutically acceptable salt thereof” (Teijin Pharma Limited, priority 2015, dated 2018).

For one experiment, the target named is T1, CDK2/cyclin A2 (Homo sapiens, UniProt P24941).
T1 construct: purchased Carna Biosciences, Inc. QS S Assist CDK2/Cyclin A2_FP Kit
Description: Human CDK2/cyclin A2 inhibitory activity (QS S Assist CDK2/Cyclin A2_FP Kit, IMAP fluorescence polarization). It is filed as biochemical. In a few lines:
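Kinase activity read as fluorescence polarization (485/535 nm) after phosphorylated fluorescent substrate binds IMAP reagent (30 min, RT, dark). Enzyme (2.5 ng/well) reacted 60 min at RT with ATP/substrate/metal in HEPES pH 7.4 buffer with Tween 20 and DTT; no-enzyme wells define 0% activity; IC50 by curve fit.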

In another experiment the target is T2, CDK4/cyclin D3 (Homo sapiens, UniProt P11802).
T2 construct: purchased Carna Biosciences, Inc. QS S Assist CDK4/Cyclin D3_FP Kit
T2 sequence (P11802 whole entry): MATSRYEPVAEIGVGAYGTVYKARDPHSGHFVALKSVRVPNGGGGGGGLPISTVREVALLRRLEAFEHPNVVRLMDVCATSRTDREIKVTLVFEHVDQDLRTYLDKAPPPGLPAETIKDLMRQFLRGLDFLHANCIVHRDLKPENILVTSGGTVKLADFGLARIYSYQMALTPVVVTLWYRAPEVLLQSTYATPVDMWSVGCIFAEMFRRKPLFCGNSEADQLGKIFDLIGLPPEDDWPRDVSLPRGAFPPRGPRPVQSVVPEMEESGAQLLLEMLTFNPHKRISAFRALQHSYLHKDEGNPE
T2 sequence (P30281 whole entry partner): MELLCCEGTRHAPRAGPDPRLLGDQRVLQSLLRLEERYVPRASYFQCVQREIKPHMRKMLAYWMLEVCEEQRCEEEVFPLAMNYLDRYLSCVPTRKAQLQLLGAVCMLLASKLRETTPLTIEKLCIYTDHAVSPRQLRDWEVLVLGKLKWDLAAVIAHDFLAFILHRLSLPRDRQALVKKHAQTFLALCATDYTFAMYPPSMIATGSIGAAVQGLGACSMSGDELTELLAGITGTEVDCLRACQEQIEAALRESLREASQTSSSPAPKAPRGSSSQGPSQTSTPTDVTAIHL
Description: Human CDK4/cyclin D3 inhibitory activity (QS S Assist CDK4/Cyclin D3_FP Kit, IMAP fluorescence polarization). In kind it is biochemical. In a few lines:
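Percent inhibition, relative to DMSO with and without enzyme, was curve-fitted to give IC50 from polarization (ex 485, em 535 nm). The 45-min room-temperature reaction used 12.5-25 ng/well enzyme, kit ATP/substrate/metal mix, and HEPES pH 7.4 buffer with Tween20 and DTT, followed by 30-min IMAP binding in the dark.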
Background: Polarisation of emitted light reports the rotation of a fluorescent probe.

Where [1] appears, read: 50% inhibitory concentration against CDK2/cyclin A2, given as class symbol.
The mark [2] stands for this setting: 50% inhibitory concentration against CDK4/cyclin D3, given as class symbol.
[3] abbreviates: Human CDK2/cyclin A2 inhibitory activity, read-out: CDK2 Activity symbol.
Setting [4] is: Human CDK4/cyclin D3 inhibitory activity, read-out: CDK4 Activity symbol.

Regarding `CCCNc1nc([C@@H](C)O)cc2cnc(Nc3ccc(CN4CCN(CCO)[C@H](C)C4)cn3)nc12` [Compound 1209], the IC50 on CDK2/cyclin A2 (setting [1]) was at least 0.1 µM; at CDK4/cyclin D3 (setting [2]), under 0.01 µM.
Taken in the same sequence, the figures for `C[C@@H](O)c1cc2cnc(Nc3ccc(N4CCNCC4=O)cn3)nc2c(NC23CC(C2)C3)n1` [Compound 771] were at least 0.1 µM and under 0.01 µM.
Turning to `CNCC(F)COc1ccc(Nc2ncc3cc([C@@H](C)OC)nc(NC(C)C)c3n2)nc1` (stereo partly drawn) [Compound 509], the figures for the IC50 at CDK2/cyclin A2 (setting [3]) and on CDK4/cyclin D3 (setting [4]) were at least 0.1 µM and under 0.01 µM, respectively.
Consider `CC(C)Nc1nc(C2CCOC2)cc2cnc(Nc3ccc(N4CCNCC4=O)cn3)nc12` (single isomer, unassigned) [Compound 774], for which the IC50 at CDK2/cyclin A2 (setting [1]) was at least 0.1 µM; on CDK4/cyclin D3 (setting [2]), 0.01 to 0.1 µM.
For the compound `CC(C)Nc1nc([C@@H](C)O)cc2cnc(Nc3cnc(N4CCNCC4=O)cn3)nc12` [Compound 716], the IC50 on CDK2/cyclin A2 (setting [1]) is at least 0.1 µM; on CDK4/cyclin D3 (setting [2]), 0.01 to 0.1 µM.
For `C[C@@H](O)c1cc2cnc(Nc3ccc(CN4CCC(CO)CC4)cn3)nc2c(NC(C)(C)C)n1` [Compound 1021], the IC50 on CDK2/cyclin A2 (setting [1]) is at least 0.1 µM; against CDK4/cyclin D3 (setting [2]), under 0.01 µM.
On to `CC(O)c1cc2cnc(Nc3ccc(N4CCNCC4)cn3)nc2c(N(C)C2CCOCC2)n1` (stereo not drawn) [Compound 11], for which the IC50 at CDK2/cyclin A2 (setting [3]) is at least 0.1 µM; at CDK4/cyclin D3 (setting [4]), 0.01 to 0.1 µM.
Taken in the same sequence, the figures for `CO[C@H](C)c1cc2cnc(Nc3ccc(N4CCNCC4=O)cn3)nc2c(NC(C)C)n1` [Compound 207] were at least 0.1 µM and under 0.01 µM.
With `CC(C)Nc1nc(C(F)F)cc2cnc(Nc3ccc(CNS(N)(=O)=O)cn3)nc12` [Compound 187], the IC50 is at least 0.1 µM on CDK2/cyclin A2 (setting [3]) and 0.01 to 0.1 µM on CDK4/cyclin D3 (setting [4]).
Consider `CCCNc1nc([C@@H](C)O)cc2cnc(Nc3ccc(CN4CCC(O)CC4)cn3)nc12` [Compound 1022], for which the IC50 at CDK2/cyclin A2 (setting [1]) is at least 0.1 µM; at CDK4/cyclin D3 (setting [2]), under 0.01 µM.
Taken in the same sequence, the figures for `C[C@@H](O)c1cc2cnc(Nc3ccc(C4CCN(CC(=O)O)CC4)cn3)nc2c(NC(C)(C)C)n1` [Compound 830] were at least 0.1 µM and under 0.01 µM.
For `CNC(=O)CN1CCN(Cc2ccc(Nc3ncc4cc([C@@H](C)OC)nc(NC(C)C)c4n3)nc2)CC1` [Compound 971], in that order: at least 0.1 µM and under 0.01 µM.
Taken in the same sequence, the figures for `CCNc1nc([C@@H](C)OC)cc2cnc(Nc3ccc4c(n3)CCN(C(=O)OCCN(C)C)C4)nc12` [Compound 1134] were at least 0.1 µM and under 0.01 µM.
Take `CC(C)Nc1nc([C@@H](C)O)cc2cnc(Nc3ccc(N4CCN(CC(=O)N5CCOCC5)CC4)nn3)nc12` [Compound 967]: the IC50 on CDK2/cyclin A2 (setting [1]) is at least 0.1 µM; at CDK4/cyclin D3 (setting [2]) it was under 0.01 µM.
Consider `C[C@@H](O)c1cc2cnc(Nc3ccc(CN4CCN(CCO)CC4)cn3)nc2c(NCC(F)(F)F)n1` [Compound 1170], for which the IC50 is at least 0.1 µM on CDK2/cyclin A2 (setting [1]) and under 0.01 µM on CDK4/cyclin D3 (setting [2]).
On to `CO[C@H](C)c1cc2cnc(Nc3ccc(OCC(=O)N4CCNCC4)cn3)nc2c(NC(C)C)n1` [Compound 557], for which the IC50 at CDK2/cyclin A2 (setting [3]) is at least 0.1 µM; at CDK4/cyclin D3 (setting [4]), under 0.01 µM.
For `CC(C)Nc1nc(C(C)O)cc2cnc(Nc3ccc(N4CCNCC4)cn3)nc12` (stereo not drawn) [Compound 9], in that order: at least 0.1 µM and under 0.01 µM.
On to `CCCNc1nc(C2(C)COC2)cc2cnc(Nc3ccc(N4CCNCC4)nn3)nc12` [Compound 945], for which the IC50 on CDK2/cyclin A2 (setting [1]) is at least 0.1 µM; against CDK4/cyclin D3 (setting [2]) it was under 0.01 µM.
For `CCCNc1nc(C2CCCO2)cc2cnc(Nc3ccc(N4CCNCC4)cn3)nc12` (single isomer, unassigned) [Compound 1025], in that order: at least 0.1 µM and at least 0.1 µM.
Taken in the same sequence, the figures for `C[C@@H](O)c1cc2cnc(Nc3ccc(CN4CCCC(O)C4)cn3)nc2c(NCC2CC2)n1` (stereo partly drawn) [Compound 1083] were at least 0.1 µM and under 0.01 µM.
As to `CC(C)Nc1nc([C@@H](C)O)cc2cnc(Nc3ccc(N4CCN(CC(C)(C)O)CCC4=O)cn3)nc12` [Compound 643], the figures for the IC50 on CDK2/cyclin A2 (setting [1]) and against CDK4/cyclin D3 (setting [2]) were at least 0.1 µM and under 0.01 µM, respectively.
In the case of `CO[C@H](C)c1cc2cnc(Nc3ccc(N4C[C@H]5C[C@@H]4CN5)nn3)nc2c(NC(C)C)n1` [Compound 859], the figures for the IC50 on CDK2/cyclin A2 (setting [1]) and against CDK4/cyclin D3 (setting [2]) were at least 0.1 µM and under 0.01 µM, respectively.
Turning to `COCC(C)(C)Nc1nc([C@@H](C)O)cc2cnc(Nc3ccc(CN4CCN(CC(F)F)CC4)cn3)nc12` [Compound 299], the IC50 on CDK2/cyclin A2 (setting [3]) was at least 0.1 µM; at CDK4/cyclin D3 (setting [4]), 0.01 to 0.1 µM.
On to `CC(C)Nc1nc([C@@H](C)O)cc2cnc(Nc3ccc(N4CCNC5(CC5)C4)nn3)nc12` [Compound 379], for which the IC50 is at least 0.1 µM at CDK2/cyclin A2 (setting [3]) and under 0.01 µM at CDK4/cyclin D3 (setting [4]).
Taken in the same sequence, the figures for `CC(C)Nc1nc([C@@H](C)O)cc2cnc(Nc3ccc(CN4CCNC5(CC5)C4)cn3)nc12` [Compound 537] were at least 0.1 µM and under 0.01 µM.
As to `CC(C)Nc1nc([C@@H](C)O)cc2cnc(Nc3ccc(N4CCNCC4C(F)(F)F)cn3)nc12` (stereo partly drawn) [Compound 764], the IC50 at CDK2/cyclin A2 (setting [1]) is at least 0.1 µM; at CDK4/cyclin D3 (setting [2]), under 0.01 µM.
For `CCNc1nc([C@@H](C)OC)cc2cnc(Nc3ccc(N4CCNCC4)nn3)nc12` [Compound 817], in that order: at least 0.1 µM and under 0.01 µM.
Regarding `CC(C)Nc1nc(C(F)F)cc2cnc(Nc3ccc(O[C@H]4CC[C@@H](O)CC4)cn3)nc12` [Compound 119], the IC50 is at least 0.1 µM at CDK2/cyclin A2 (setting [3]) and 0.01 to 0.1 µM on CDK4/cyclin D3 (setting [4]).
For the compound `CC(C)Nc1nc(C(F)F)cc2cnc(Nc3ccc(S(=O)(=O)CCCO)cn3)nc12` [Compound 112], the IC50 on CDK2/cyclin A2 (setting [3]) and at CDK4/cyclin D3 (setting [4]) was 0.01 to 0.1 µM in each case.
As for `CC(C)Nc1nc(C(F)F)cc2cnc(Nc3ccc(N4CCN(C)CC4=O)cn3)nc12` [Compound 80], the IC50 on CDK2/cyclin A2 (setting [3]) was 0.01 to 0.1 µM; at CDK4/cyclin D3 (setting [4]), under 0.01 µM.
For the compound `CC(C)Nc1nc([C@@H](C)O)cc2cnc(Nc3ccc(N4CCNC5(CC5)C4=O)cn3)nc12` [Compound 733], the values for the IC50 against CDK2/cyclin A2 (setting [1]) and on CDK4/cyclin D3 (setting [2]) were at least 0.1 µM and 0.01 to 0.1 µM, respectively.
For `CC(C)Nc1nc([C@@H](C)O)cc2cnc(Nc3ccc(O[C@H]4CC[C@H](N(C)C)CC4)cn3)nc12` [Compound 740], in that order: at least 0.1 µM and under 0.01 µM.
`CC(C)Nc1nc(C(F)F)cc2cnc(Nc3ccc(CCCCO)cn3)nc12` [Compound 108]: the values for the IC50 at CDK2/cyclin A2 (setting [3]) and on CDK4/cyclin D3 (setting [4]) were 0.01 to 0.1 µM and under 0.01 µM, respectively.
As for `CCNc1nc([C@@H](C)O)cc2cnc(Nc3ccc(CN4CCN(CCO)C[C@H]4C)cn3)nc12` [Compound 982], the IC50 was at least 0.1 µM against CDK2/cyclin A2 (setting [1]) and under 0.01 µM on CDK4/cyclin D3 (setting [2]).
In the case of `CC(C)Nc1nc([C@@H](C)O)cc2cnc(Nc3ccc(CN4CCN(C(=O)C5CCCO5)CC4)cn3)nc12` (stereo partly drawn) [Compound 1192], the IC50 was at least 0.1 µM against CDK2/cyclin A2 (setting [1]) and under 0.01 µM against CDK4/cyclin D3 (setting [2]).
For the compound `C[C@@H](O)c1nc(N[C@H]2CC[C@H](O)CC2)c2nc(Nc3ccc(CN4CCNCC4)cn3)ncc2c1Cl` [Compound 370], the IC50 is at least 0.1 µM at CDK2/cyclin A2 (setting [3]) and under 0.01 µM at CDK4/cyclin D3 (setting [4]).
Taken in the same sequence, the figures for `CC(O)c1cc2cnc(Nc3ccc(N4CCNCC4)cn3)nc2c(NC2CCOCC2)n1` (stereo not drawn) [Compound 12] were at least 0.1 µM and under 0.01 µM.
For the compound `CC(=O)NCc1ccc(Nc2ncc3cc(C(F)F)nc(NC(C)C)c3n2)nc1` [Compound 124], the IC50 on CDK2/cyclin A2 (setting [3]) is at least 0.1 µM; on CDK4/cyclin D3 (setting [4]) it was 0.01 to 0.1 µM.
As to `CC(C)Nc1nc([C@@H](C)O)c(F)c2cnc(Nc3ccc(N4CCNCC4)cn3)nc12` [Compound 64], the values for the IC50 on CDK2/cyclin A2 (setting [3]) and at CDK4/cyclin D3 (setting [4]) were at least 0.1 µM and under 0.01 µM, respectively.
